According to publication PMC7336998, “Discovery of secondary sulphonamides as IDO1 inhibitors with potent antitumour effects in vivo” (Journal of Enzyme Inhibition and Medicinal Chemistry, 2020):

Columns and labels:
IDO1 = target: T1, IDO1 (Homo sapiens, UniProt P14902); test: HeLa cell-based IDO1/kynurenine assay; conditions: for inhibition at 30 µM: percentage inhibition at 30 μM, IFN-γ-treated HeLa cells, kynurenine in media; for IC50: HeLa cells, IFN-γ induced IDO1, kynurenine readout
T1 construct: a human cervical cancer cell line HeLa that endogenously expresses IDO1 upon IFN-γ treatment; endogenous in cells; host or cells: HeLa cells treated with human IFN-γ
T1 sequence (P14902 whole entry): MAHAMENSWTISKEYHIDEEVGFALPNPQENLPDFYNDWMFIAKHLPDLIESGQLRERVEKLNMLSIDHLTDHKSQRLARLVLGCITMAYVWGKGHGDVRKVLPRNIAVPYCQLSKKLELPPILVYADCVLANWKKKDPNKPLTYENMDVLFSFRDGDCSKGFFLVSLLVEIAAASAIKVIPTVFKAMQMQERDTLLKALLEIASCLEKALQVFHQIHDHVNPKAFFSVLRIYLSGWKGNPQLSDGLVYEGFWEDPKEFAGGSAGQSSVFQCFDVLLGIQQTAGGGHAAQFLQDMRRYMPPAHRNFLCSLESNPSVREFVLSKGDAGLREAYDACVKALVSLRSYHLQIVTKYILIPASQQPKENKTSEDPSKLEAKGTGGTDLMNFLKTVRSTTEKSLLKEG
Method: The main bioassays performed in the study, including HeLa cell-based IDO1/kynurenine assay, Western blot analysis, T cell proliferation and Treg cell differentiation experiments, were carried out as described previously.
It is well known that IDO1 is broadly expressed in human cancers and is induced by pro-inflammatory cytokines, such as interferon gamma (IFN-γ) and tumour necrosis factor alpha (TNF-α)[41]. Here we utilised a human cervical cancer cell line HeLa that endogenously expresses IDO1 upon IFN-γ treatment to evaluate the IDO1 inhibitory activity of the synthesised compounds by measuring kynurenine secreted into the media. […] Thus, we also employed this cellular assay to detect false positive IDO1 inhibitors and cytotoxic compounds by measuring HeLa cell viability. Clinical candidate navoximod was used as an assay control.

CC(=O)Nc1ccc(S(=O)(=O)Nc2ccccc2)cc1 [3a, N-(4-(N-Phenylsulfamoyl)phenyl)acetamide]
inhibition at 30 µM (IDO1): 3.9% | melting point: 204 to 206 °C

CC(=O)Nc1ccc(S(=O)(=O)Nc2ccc(C)cc2)cc1 [3b, N-(4-(N-(p-Tolyl)sulfamoyl)phenyl)acetamide]
inhibition at 30 µM (IDO1): 16.3%

CC(=O)Nc1ccc(S(=O)(=O)Nc2ccc(C(C)C)cc2)cc1 [3c, N-(4-(N-(4-Isopropylphenyl)sulfamoyl)phenyl)acetamide]
inhibition at 30 µM (IDO1): 5.9% | melting point: 186 to 188 °C

CC(=O)Nc1ccc(S(=O)(=O)Nc2cccc(C(C)C)c2)cc1 [3d, N-(4-(N-(3-Isopropylphenyl)sulfamoyl)phenyl)acetamide]
inhibition at 30 µM (IDO1): 14.6% | melting point: 158 to 160 °C

CC(=O)Nc1ccc(S(=O)(=O)NCc2ccccc2)cc1 [3e, N-(4-(N-Benzylsulfamoyl)phenyl)acetamide]
inhibition at 30 µM (IDO1): 2.5%

CC(=O)Nc1ccc(S(=O)(=O)NCc2ccc(Cl)cc2)cc1 [3f, N-(4-(N-(4-Chlorobenzyl)sulfamoyl)phenyl)acetamide]
inhibition at 30 µM (IDO1): 13.5% | melting point: 172 to 174 °C

CC(=O)Nc1ccc(S(=O)(=O)NCc2ccc(C(F)(F)F)cc2)cc1 [3g, N-(4-(N-(4-(Trifluoromethyl)benzyl)sulfamoyl)phenyl)acetamide]
inhibition at 30 µM (IDO1): 14.5% | melting point: 186 to 188 °C

CC(=O)Nc1ccc(S(=O)(=O)NCc2cccc(C(F)(F)F)c2)cc1 [3h, N-(4-(N-(3-(Trifluoromethyl)benzyl)sulfamoyl)phenyl)acetamide]
inhibition at 30 µM (IDO1): 7.8% | melting point: 154 to 156 °C

CC(=O)Nc1ccc(S(=O)(=O)NCCc2ccccc2)cc1 [3i, N-(4-(N-Phenethylsulfamoyl)phenyl)acetamide]
inhibition at 30 µM (IDO1): 5.9% | melting point: 130 to 132 °C

Nc1ccc(S(=O)(=O)Nc2ccccc2)cc1 [4a, 4-Amino-N-phenylbenzenesulfonamide]
inhibition at 30 µM (IDO1): 12%

Cc1ccc(NS(=O)(=O)c2ccc(N)cc2)cc1 [4b, 4-Amino-N-(p-tolyl)benzenesulfonamide]
inhibition at 30 µM (IDO1): 10.8%

Nc1ccc(S(=O)(=O)NCc2ccccc2)cc1 [4c, 4-Amino-N-benzylbenzenesulfonamide]
inhibition at 30 µM (IDO1): 7.4%

Nc1ccc(S(=O)(=O)NCc2ccc(Cl)cc2)cc1 [4d, 4-Amino-N-(4-chlorobenzyl)benzenesulfonamide]
inhibition at 30 µM (IDO1): -4.2% | melting point: 172 to 174 °C

Nc1ccc(S(=O)(=O)NCc2cccc(Cl)c2)cc1 [4e, 4-Amino-N-(3-chlorobenzyl)benzenesulfonamide]
IC50 (IDO1): > 50 µM | inhibition at 30 µM (IDO1): 2.3% | melting point: 119 to 121 °C

Nc1ccc(S(=O)(=O)NCCc2ccccc2)cc1 [4f, 4-Amino-N-phenethylbenzenesulfonamide]
inhibition at 30 µM (IDO1): 3.1%

C=CC(=O)Nc1ccc(S(=O)(=O)NCc2ccccc2)cc1 [5a, N-(4-(N-Benzylsulfamoyl)phenyl)acrylamide]
IC50 (IDO1): 22.4 µM | inhibition at 30 µM (IDO1): 62.5% | melting point: 116 to 118 °C

C=CC(=O)Nc1ccc(S(=O)(=O)NCc2ccc(OC)cc2)cc1 [5b, N-(4-(N-(4-Methoxybenzyl)sulfamoyl)phenyl)acrylamide]
IC50 (IDO1): 40.1 µM | inhibition at 30 µM (IDO1): 36% | melting point: 156 to 158 °C

C=CC(=O)Nc1ccc(S(=O)(=O)NCc2ccc(Cl)cc2)cc1 [5c, N-(4-(N-(4-Chlorobenzyl)sulfamoyl)phenyl)acrylamide]
IC50 (IDO1): 36.2 µM | inhibition at 30 µM (IDO1): 40.4% | melting point: 190 to 192 °C

C=CC(=O)Nc1ccc(S(=O)(=O)NCCc2ccccc2)cc1 [5e, N-(4-(N-Phenethylsulfamoyl)phenyl)acrylamide]
IC50 (IDO1): 26.3 µM | inhibition at 30 µM (IDO1): 55.2% | melting point: 154 to 156 °C

C=CC(=O)Nc1ccc(S(=O)(=O)NCc2ccc(C(F)(F)F)cc2)cc1 [5f, N-(4-(N-(4-(Trifluoromethyl)benzyl)sulfamoyl)phenyl)acrylamide]
IC50 (IDO1): 39.2 µM | inhibition at 30 µM (IDO1): 38.2% | melting point: 198 to 200 °C

C=CC(=O)Nc1ccc(S(=O)(=O)NCc2cccc(C(F)(F)F)c2)cc1 [5g, N-(4-(N-(3-(Trifluoromethyl)benzyl)sulfamoyl)phenyl)acrylamide]
IC50 (IDO1): 30.5 µM | inhibition at 30 µM (IDO1): 49.5% | melting point: 152 to 154 °C

C=CC(=O)Nc1ccc(S(=O)(=O)NCc2ccc(F)cc2)cc1 [5h, N-(4-(N-(4-Fluorobenzyl)sulfamoyl)phenyl)acrylamide]
IC50 (IDO1): 20.5 µM | inhibition at 30 µM (IDO1): 70.9% | melting point: 178 to 180 °C

C=CC(=O)Nc1ccc(S(=O)(=O)NCc2cccc(F)c2)cc1 [5i, N-(4-(N-(3-Fluorobenzyl)sulfamoyl)phenyl)acrylamide]
IC50 (IDO1): 39.5 µM | inhibition at 30 µM (IDO1): 37.8% | melting point: 152 to 154 °C

C=CC(=O)Nc1ccc(S(=O)(=O)NCc2ccccc2Cl)cc1 [5j, N-(4-(N-(2-Chlorobenzyl)sulfamoyl)phenyl)acrylamide]
IC50 (IDO1): 22.7 µM | inhibition at 30 µM (IDO1): 65.1% | melting point: 178 to 180 °C

C=CC(=O)Nc1ccc(S(=O)(=O)NCc2ccc(Br)cc2)cc1 [5k, N-(4-(N-(4-Bromobenzyl)sulfamoyl)phenyl)acrylamide]
IC50 (IDO1): 42.1 µM | inhibition at 30 µM (IDO1): 37.5% | melting point: 194 to 196 °C

C=CC(=O)Nc1ccc(S(=O)(=O)NCc2ccc(Cl)c(Cl)c2)cc1 [5m, N-(4-(N-(3,4-Dichlorobenzyl)sulfamoyl)phenyl)acrylamide]
IC50 (IDO1): 37.3 µM | inhibition at 30 µM (IDO1): 44% | melting point: 148 to 150 °C

C=CC(=O)Nc1ccc(S(=O)(=O)Nc2ccccc2)cc1 [8a, N-(4-(N-Phenylsulfamoyl)phenyl)acrylamide]
IC50 (IDO1): 13.2 µM | inhibition at 30 µM (IDO1): 85.9% | melting point: 212 to 213 °C

C=CC(=O)Nc1ccc(S(=O)(=O)Nc2ccc(C)cc2)cc1 [8b, N-(4-(N-(p-Tolyl)sulfamoyl)phenyl)acrylamide]
inhibition at 30 µM (IDO1): 25.3% | melting point: 230 to 232 °C

C=CC(=O)Nc1ccc(S(=O)(=O)Nc2ccc(OC)cc2)cc1 [8c, N-(4-(N-(4-Methoxyphenyl)sulfamoyl)phenyl)acrylamide]
inhibition at 30 µM (IDO1): 20.9% | melting point: 234 to 235 °C

C=CC(=O)Nc1ccc(S(=O)(=O)Nc2cccc(OC)c2)cc1 [8d, N-(4-(N-(3-Methoxyphenyl)sulfamoyl)phenyl)acrylamide]
IC50 (IDO1): 13.4 µM | inhibition at 30 µM (IDO1): 74.8% | melting point: 197 to 199 °C

C=CC(=O)Nc1ccc(S(=O)(=O)Nc2cccc(F)c2)cc1 [8e, N-(4-(N-(3-Fluorophenyl)sulfamoyl)phenyl)acrylamide]
IC50 (IDO1): 17.7 µM | inhibition at 30 µM (IDO1): 69.7% | melting point: 212 to 215 °C

C=CC(=O)Nc1ccc(S(=O)(=O)Nc2ncccn2)cc1 [8h, N-(4-(N-(Pyrimidin-2-yl)sulfamoyl)phenyl)acrylamide]
inhibition at 30 µM (IDO1): 16.4% | melting point: 229 to 230 °C

C=CC(=O)Nc1ccc(S(=O)(=O)Nc2onc(C)c2C)cc1 [8i, N-(4-(N-(3,4-Dimethylisoxazol-5-yl)sulfamoyl)phenyl)acrylamide]
inhibition at 30 µM (IDO1): 23.6% | melting point: 206 to 208 °C

C=CC(=O)Nc1ccc(S(=O)(=O)Nc2cc(C)on2)cc1 [8j, N-(4-(N-(5-Methylisoxazol-3-yl)sulfamoyl)phenyl)acrylamide]
inhibition at 30 µM (IDO1): 22.7% | melting point: 232 to 233 °C
